In ChEMBL document CHEMBL1201862, “PubChem BioAssay data set” (2004):
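Interpolation was linear, between the two tested concentrations surrounding the appropriate level; five concentrations were tested over 48 hours in 96-well plates. GI50 marks 50% less growth.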 Activity calls are given as the source filed them. Cut-off read from the data, not from the text of the source: active = GI50 up to about 1.1 µM and inactive = higher.

Legend:
Assay in all cases: growth of human tumour cells (NCI), 48 h
SNB-78 = test system: SNB-78
SF-268 = test system: SF-268
SK-MEL-5 = test system: SK-MEL-5
SNB-75 = test system: SNB-75
U-251 = test system: U-251
MOLT-4 = test system: MOLT-4
K562 = test system: K562
786-0 = test system: 786-0
M14 = test system: M14
SW-620 = test system: SW-620
XF498 = test system: XF498
Malme-3M = test system: Malme-3M
M19-MEL = test system: M19-MEL
UACC-62 = test system: UACC-62
A549 = test system: A549
KM-20L2 = test system: KM-20L2
RXF 393 = test system: RXF 393
UO-31 = test system: UO-31
HT-29 = test system: HT-29
RXF 631 = test system: RXF 631
NCI-H226 = test system: NCI-H226
SNB-19 = test system: SNB-19
TK-10 = test system: TK-10
HCT-116 = test system: HCT-116
SN12C = test system: SN12C
OVCAR-3 = test system: OVCAR-3
CAKI-1 = test system: CAKI-1
SF-539 = test system: SF-539
DMS-273 = test system: DMS-273
KM12 = test system: KM12
HOP-18 = test system: HOP-18
DLD-1 = test system: DLD-1
OVCAR-5 = test system: OVCAR-5
A498 = test system: A498
HL-60 = test system: HL-60
SK-OV-3 = test system: SK-OV-3
UACC-257 = test system: UACC-257
NCI-H460 = test system: NCI-H460
ACHN = test system: ACHN
IGROV-1 = test system: IGROV-1
HOP-92 = test system: HOP-92
EKVX = test system: EKVX
HOP-62 = test system: HOP-62
SR = test system: SR
SF-295 = test system: SF-295
DMS-114 = test system: DMS-114
SK-MEL-28 = test system: SK-MEL-28
OVCAR-8 = test system: OVCAR-8
NCI-H522 = test system: NCI-H522
RPMI-8226 = test system: RPMI-8226
CCRF-CEM = test system: CCRF-CEM
OVCAR-4 = test system: OVCAR-4
LOX IMVI = test system: LOX IMVI
COLO 205 = test system: COLO 205
NCI-H23 = test system: NCI-H23
SK-MEL-2 = test system: SK-MEL-2

Measured: GI50

OC1C2C=CCC1CCC2 (stereo unspecified)
inactive: SNB-78 > 100 µM | SF-268 > 100 µM | SK-MEL-5 > 100 µM | SNB-75 > 100 µM | U-251 > 100 µM | MOLT-4 > 100 µM | K562 > 100 µM | 786-0 > 100 µM | M14 > 100 µM | SW-620 > 100 µM | XF498 > 100 µM | Malme-3M > 100 µM | M19-MEL > 100 µM | UACC-62 > 100 µM | A549 > 100 µM | KM-20L2 > 100 µM | RXF 393 > 100 µM | UO-31 > 100 µM | HT-29 > 100 µM | RXF 631 > 100 µM | NCI-H226 > 100 µM | SNB-19 > 100 µM | TK-10 > 100 µM | HCT-116 > 100 µM | SN12C > 100 µM | OVCAR-3 > 100 µM | CAKI-1 > 100 µM | SF-539 > 100 µM | DMS-273 > 100 µM | KM12 > 100 µM | HOP-18 > 100 µM | DLD-1 > 100 µM | OVCAR-5 > 100 µM | A498 > 100 µM | HL-60 > 100 µM | SK-OV-3 > 100 µM | UACC-257 > 100 µM | NCI-H460 > 100 µM | ACHN > 100 µM | IGROV-1 > 100 µM | HOP-92 > 100 µM | EKVX > 100 µM | HOP-62 > 100 µM | SR > 100 µM | SF-295 > 100 µM | DMS-114 > 100 µM | SK-MEL-28 > 100 µM | OVCAR-8 > 100 µM | NCI-H522 > 100 µM | RPMI-8226 > 100 µM | CCRF-CEM > 100 µM | OVCAR-4 > 100 µM | LOX IMVI > 100 µM | COLO 205 > 100 µM | NCI-H23 > 100 µM | SK-MEL-2 > 100 µM
